Earlier results as cited in US8349821B2, “Stanol composition and the use thereof” (Raisio Nutrition Ltd., priority 1996, dated 2013).

Key:
male subjects = settings: for Absorption rate, on average: intestinal perfusion technique, ten male subjects
healthy humans = settings: in vivo

SMILES	Dietary campesterol absorbed (male subjects; in vivo)	Absorption rate, on average (male subjects) [%]	Amount that can be absorbed (healthy humans) [%]	Absorbability (in words) (healthy humans)
CC(C)[C@H](C)CC[C@@H](C)[C@H]1CC[C@H]2[C@@H]3CC=C4C[C@@H](O)CC[C@]4(C)[C@H]3CC[C@]12C [campesterol]	up to 10%	9.6	–	–
CC[C@H](/C=C/[C@@H](C)[C@H]1CC[C@H]2[C@@H]3CC=C4C[C@@H](O)CC[C@]4(C)[C@H]3CC[C@]12C)C(C)C [stigmasterol]	–	4.8	–	–
CC[C@H](CC[C@@H](C)[C@H]1CC[C@H]2[C@@H]3CC=C4C[C@@H](O)CC[C@]4(C)[C@H]3CC[C@]12C)C(C)C [sitosterol]	–	4.2	< 5	–
CC[C@H](CC[C@@H](C)[C@H]1CC[C@H]2[C@@H]3CC[C@H]4C[C@@H](O)CC[C@]4(C)[C@H]3CC[C@]12C)C(C)C [sitostanol]	–	–	–	practically unabsorbable
